Source: patent publication US20050153985A1, “Methods of treating acute inflammation in animals with p38 map kinase inhibitors” (priority 2003, published 2005)
Entries after “also recorded” stand apart in the source; their conditions may differ.

Tested on: E. coli (MacDonald 487) induced mastitis
Assay: E. coli induced mastitis in lactating cows, treatment 13 hours after intramammary challenge
Type: in vivo, lactating Holstein cows
Details: 10 mg/kg IV; for mean E. coli colony counts in milk after treatment: 11-168 hours, FIG. 10; for mean E. coli colony counts in milk after treatment / milk somatic cell count (SCC) / mean whey PGE2 levels after treatment: compared to infected; for mean E. coli colony counts in milk after treatment / milk clinical scores / gland clinical scores: non-medicated controls; for whey PGE2 levels at 11 hours after treatment: relative to level at time 0; for milk produced during the 13 days after treatment: based on mean daily milk production values from FIG. 2, infected, non-medicated cow 365 lbs; for cumulative clinical scores: compared to controls, FIG. 5; for milk production loss associated with mastitis following treatment: compared to infected cows treated with vehicle, FIG. 2; for milk somatic cell count (SCC) / mean whey PGE2 levels after treatment: non-medicated control cows; for milk somatic cell count (SCC): FIG. 6; for mean whey PGE2 levels after treatment: FIG. 9; for milk produced during the 13 days after treatment compared with infected, non-medicated cow: comparison in words; for total WBC numbers (peripheral blood) / total PMN numbers (peripheral blood): data analyzed for 0-72 hours, vs controls; for total WBC numbers (peripheral blood): FIG. 7; for total PMN numbers (peripheral blood): FIG. 8; for milk clinical scores / gland clinical scores: vs infected; for milk clinical scores: FIG. 3; for gland clinical scores: FIG. 4
Source text: Thirty-three lactating Holstein cows were randomly allotted to 5 treatment groups blocked by milk production and days in milk. Milk and blood samples and temperature data were collected at the morning milking on day −1. One normal quarter was selected from each cow based on clinical scores and California Mastitis Test (CMT) results performed at morning milking on day −1. After the evening milking on […], selected quarters were infused with approximately 30 cfu of E. coli (MacDonald 487). Milk and blood samples and temperature data were collected prior to treatment at the morning milking on day 0. Cows were treated after the morning milking on day 0 according to the study design. After treatment, milk and blood samples and temperature data were collected at 11, 24, 35, 48, 72, 144, 168, 192, and 216 hours. Clinical scores of infused quarters and milk production were assessed at each milking. Milk samples were analyzed for culture (E. coli), SCC, TNF-α and PGE2 and blood leukograms were determined. [table] Assessment of test article efficacy was determined based upon a comparison of the treatment effect on each variable versus the challenged, non-medicated group. Data were analyzed using the MIXED procedure of PC-SAS version 6.12. The model included treatment, time and their interaction. Covariance within cows across time was modeled using the Repeated statement analysis with a […] covariance structure to account for unequally spaced sampling times. Tests for significance (P≦0.10) were based upon the main treatment effect compared with the challenged, non-medicated group. The P value of ≦0.10 was selected based on the number of animals per treatment group and the conservative nature of the SAS procedure. […] In all, 27 of 27 quarters challenged developed clinical mastitis.

SMILES | mean E. coli colony counts in milk after treatment | whey PGE2 levels at 11 hours after treatment | milk produced during the 13 days after treatment | cumulative clinical scores | milk production loss associated with mastitis following treatment | milk somatic cell count (SCC) | mean whey PGE2 levels after treatment | milk produced during the 13 days after treatment compared with infected, non-medicated cow | total WBC numbers (peripheral blood) | total PMN numbers (peripheral blood) | milk clinical scores | gland clinical scores
Nc1nccc(-c2c(-c3ccc(F)cc3)ncn2C2CCNCC2)n1 [MAPKi #1] | significantly decreased; also recorded: Significant improvement | decline | 847 lbs | significantly lower; also recorded: Significant improvement | significantly less milk production loss; also recorded: Significant improvement | trend towards lower SCC | significant reduction; also recorded: Significant improvement | more than twice as much milk | returned to pre-challenge levels significantly faster; also recorded: Significant improvement | returned to pre-challenge levels significantly faster | significantly improved; also recorded: Significant improvement | Significantly improved; also recorded: Significant improvement
CC(C)n1c(=O)n(C)c2cc(-c3[nH]c(-c4cnccn4)nc3-c3ccc(F)cc3)ccc21 [MAPKi #2] | decline in milk E. coli numbers compared to controls but the difference was not significant; also recorded: reduced | remained at the same level | 689 lbs | significantly lower; also recorded: Significant reductions |  |  | significant reduction | produced more milk than control cows | returned to pre-challenge levels significantly faster | returned to pre-challenge levels significantly faster | significantly improved; also recorded: Significant reductions | Significantly improved; also recorded: Significant reductions
CC(=O)Nc1nc(-c2cccc(C)c2)c(-c2ccc3c(c2)n(C)c(=O)n3CC(C)C)[nH]1 [MAPKi #3] | did not show a decline | continue to rise | 366 lbs |  | no trend for improved | trend towards lower SCC | significant reduction; also recorded: significantly reduced | produced the same amount of milk as infected, non-medicated control cows |  |  | no trend for improved | Significantly improved
